Results as given in patent US20250098679A1, “HERBICIDAL PYRIDONE DERIVATIVES” (SYNGENTA CROP PROTECTION AG, priority 2021, published 2025).

Columns and labels:
Type in all cases: in vivo
Settings in all cases: evaluated after 13 days
[1] = tested on: Echinochloa crus-galli (ECHCG); assay: Post-emergence Test, Echinochloa crus-galli (ECHCG); design: key to percentage damage caused to the plant, ECHCG (five-point scale): 5=81-100%, 4=61-80%, 3=41-60%, 2=21-40%, 1=0-20% damage
Procedure, shortened: (§1)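 Application was a spray of acetone/water (50:50) with 0.5% Tween 20 onto pots of test species sown in standard soil. Unless otherwise stated, the rate was 1000 g/ha. After 13 days under glasshouse conditions (24/16 °C, 65% humidity), injury was scored from 1 (0-20%) to 5 (81-100%).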

[2] = tested on: Amaranthus retoflexus (AMARE); assay: Pre-emergence Test, Amaranthus retoflexus (AMARE)
[3] = tested on: Setaria faberi (SETFA); assay: Pre-emergence Test, Setaria faberi (SETFA)
[4] = tested on: Ipomoea hederacea (IPOHE); assay: Post-emergence Test, Ipomoea hederacea (IPOHE); design: key to percentage damage caused to the plant, IPOHE (five-point scale): 5=81-100%, 4=61-80%, 3=41-60%, 2=21-40%, 1=0-20% damage
Procedure, shortened: as §1

[5] = tested on: Zea mays (ZEAMX); assay: Post-emergence Test, Zea mays (ZEAMX); design: key to percentage damage caused to the plant, ZEAMX (five-point scale): 5=81-100%, 4=61-80%, 3=41-60%, 2=21-40%, 1=0-20% damage
Procedure, shortened: as §1

[6] = tested on: Zea mays (ZEAMX); assay: Pre-emergence Test, Zea mays (ZEAMX)
[7] = tested on: Echinochloa crus-galli (ECHCG); assay: Pre-emergence Test, Echinochloa crus-galli (ECHCG)
[8] = tested on: Ipomoea hederacea (IPOHE); assay: Pre-emergence Test, Ipomoea hederacea (IPOHE)
[9] = tested on: Amaranthus palmeri (AMAPA); assay: Pre-emergence Test, Amaranthus palmeri (AMAPA)
[10] = tested on: Amaranthus palmeri (AMAPA); assay: Post-emergence Test, Amaranthus palmeri (AMAPA); design: key: 5=81-100%, 4=61-80%, 3=41-60%, 2=21-40%, 1=0-20% damage
Procedure, shortened: as §1

[11] = tested on: Setaria faberi (SETFA); assay: Post-emergence Test, Setaria faberi (SETFA); design: key to percentage damage caused to the plant, SETFA (five-point scale): 5=81-100%, 4=61-80%, 3=41-60%, 2=21-40%, 1=0-20% damage
Procedure, shortened: as §1

[12] = tested on: Amaranthus retoflexus (AMARE); assay: Post-emergence Test, Amaranthus retoflexus (AMARE); design: key to percentage damage caused to the plant, AMARE (five-point scale): 5=81-100%, 4=61-80%, 3=41-60%, 2=21-40%, 1=0-20% damage
Procedure, shortened: as §1

SMILES | percentage damage caused to the plant, ECHCG (five-point scale) ([1]; 250 g/Ha) | percentage damage caused to the plant, ECHCG (five-point scale) ([1]; 1000 g/ha) | Pre-emergence Test AMARE, percentage damage caused to the plant (five-point scale) ([2]; 1000 g/ha) | Pre-emergence Test SETFA, percentage damage caused to the plant (five-point scale) ([3]; 1000 g/ha) | percentage damage caused to the plant, IPOHE (five-point scale) ([4]; 250 g/Ha) | percentage damage caused to the plant, IPOHE (five-point scale) ([4]; 1000 g/ha) | percentage damage caused to the plant, ZEAMX (five-point scale) ([5]; 250 g/Ha) | percentage damage caused to the plant, ZEAMX (five-point scale) ([5]; 1000 g/ha) | Pre-emergence Test ZEAMX, percentage damage caused to the plant (five-point scale) ([6]; 1000 g/ha) | Pre-emergence Test ECHCG, percentage damage caused to the plant (five-point scale) ([7]; 1000 g/ha) | Pre-emergence Test IPOHE, percentage damage caused to the plant (five-point scale) ([8]; 1000 g/ha) | Pre-emergence Test AMAPA, percentage damage caused to the plant (five-point scale) ([9]; 1000 g/ha) | percentage damage caused to the plant, AMAPA (five-point scale) ([10]; 250 g/Ha) | percentage damage caused to the plant, AMAPA (five-point scale) ([10]; 1000 g/ha) | percentage damage caused to the plant, SETFA (five-point scale) ([11]; 250 g/Ha) | percentage damage caused to the plant, SETFA (five-point scale) ([11]; 1000 g/ha) | percentage damage caused to the plant, AMARE (five-point scale) ([12]; 250 g/Ha) | percentage damage caused to the plant, AMARE (five-point scale) ([12]; 1000 g/ha) | further results
Cn1c(Cn2ccc(C(F)(F)F)n2)cc(=O)c(C(=O)O)c1-c1ccc(Cl)c(Cl)c1 [Compound 33, 2-(3,4-dichlorophenyl)-1-methyl-4-oxo-6-[[3-(trifluoromethyl)pyrazol-1-yl]methyl]pyridine-3-carboxylic acid] | 3 (3=41-60%) | 4 (4=61-80%) | 0 | 5 (5=81-100%) | 4 (4=61-80%) | 3 (3=41-60%) | 1 (1=0-20%) | 2 (2=21-40%) | 0 | 5 (5=81-100%) | 0 | 3 (3=41-60%) | 1 (1=0-20%) | 2 (2=21-40%) | 3 (3=41-60%) | 4 (4=61-80%) | 1 (1=0-20%) | 3 (3=41-60%) | 
Cn1c(Cn2ccc(Cl)n2)cc(=O)c(C(=O)O)c1-c1ccc(Cl)c(Cl)c1 [Compound 34, 6-[(3-chloropyrazol-1-yl)methyl]-2-(3,4-dichlorophenyl)-1-methyl-4-oxo-pyridine-3-carboxylic acid] | 2 (2=21-40%) | 4 (4=61-80%) | 0 | 5 (5=81-100%) | 4 (4=61-80%) | 4 (4=61-80%) | 1 (1=0-20%) | 2 (2=21-40%) | 0 | 5 (5=81-100%) | 0 | 1 (1=0-20%) | 1 (1=0-20%) | 3 (3=41-60%) | 3 (3=41-60%) | 4 (4=61-80%) | 1 (1=0-20%) | 1 (1=0-20%) | 
CCn1c(Cn2ccc(SC)n2)cc(=O)c(C(=O)O)c1-c1ccc(Cl)c(Cl)c1 [Compound 35, 2-(3,4-dichlorophenyl)-1-ethyl-6-[(3-methylsulfanylpyrazol-1-yl)methyl]-4-oxo-pyridine-3-carboxylic acid] | 3 (3=41-60%) | 4 (4=61-80%) | 1 (1=0-20%) | 4 (4=61-80%) | 4 (4=61-80%) | 2 (2=21-40%) | 2 (2=21-40%) | 3 (3=41-60%) | 5 (5=81-100%) | 5 (5=81-100%) | 4 (4=61-80%) | 2 (2=21-40%) | 1 (1=0-20%) | 1 (1=0-20%) | 4 (4=61-80%) | 4 (4=61-80%) |  | 3 (3=41-60%) | 
CCn1c(Cn2ccc(F)n2)cc(=O)c(C(=O)O)c1-c1ccc(Cl)c(Cl)c1 [Compound 36, 2-(3,4-dichlorophenyl)-1-ethyl-6-[(3-fluoropyrazol-1-yl)methyl]-4-oxo-pyridine-3-carboxylic acid] | 3 (3=41-60%) |  |  |  | 4 (4=61-80%) |  | 2 (2=21-40%) |  |  |  |  |  | 1 (1=0-20%) |  | 4 (4=61-80%) |  | 2 (2=21-40%) |  | Pre-emergence Test AMARE, percentage damage caused to the plant (five-point scale) ([2]; 250 g/Ha (*)): 1 (1=0-20%); Pre-emergence Test SETFA, percentage damage caused to the plant (five-point scale) ([3]; 250 g/Ha (*)): 4 (4=61-80%); Pre-emergence Test ZEAMX, percentage damage caused to the plant (five-point scale) ([6]; 250 g/Ha (*)): 0; Pre-emergence Test ECHCG, percentage damage caused to the plant (five-point scale) ([7]; 250 g/Ha (*)): 3 (3=41-60%); Pre-emergence Test IPOHE, percentage damage caused to the plant (five-point scale) ([8]; 250 g/Ha (*)): 0; Pre-emergence Test AMAPA, percentage damage caused to the plant (five-point scale) ([9]; 250 g/Ha (*)): 2 (2=21-40%)
CCn1c(Cn2ccc(OC(F)F)n2)cc(=O)c(C(=O)O)c1-c1ccc(Cl)c(Cl)c1 [Compound 37, 2-(3,4-dichlorophenyl)-6-[[3-(difluoromethoxy)pyrazol-1-yl]methyl]-1-ethyl-4-oxo-pyridine-3-carboxylic acid] | 4 (4=61-80%) | 4 (4=61-80%) | 1 (1=0-20%) | 5 (5=81-100%) | 4 (4=61-80%) | 2 (2=21-40%) | 1 (1=0-20%) | 4 (4=61-80%) | 5 (5=81-100%) | 5 (5=81-100%) | 4 (4=61-80%) | 2 (2=21-40%) | 2 (2=21-40%) | 4 (4=61-80%) | 4 (4=61-80%) | 5 (5=81-100%) | 2 (2=21-40%) | 1 (1=0-20%) | 
